In patent publication US11958869B2, “Ruthenium arene Schiff-base complexes and uses thereof” (CITY UNIVERSITY OF HONG KONG, priority 2021, dated 2024):
Where two headings read alike, the source gives them in different places.

Tests used:
MDA-MB-231 mammospheres [1] = test: Viability of MDA-MB-231 mammospheres, Alamar Blue assay (Table 1); type: cell-based; conditions: read-out: IC50 (μM), growth of MDA-MB-231 mammospheres
MCF-7 = test: cells; type: cell-based; conditions: 72 h, MTT; read-out: IC50 (μM) MCF-7 72 h
Protocol: (§1) Cells were seeded in 96-well plates and maintained for 14-16 hours, then were treated with dimethylsulfoxide (DMSO) or test compound at various concentrations (i.e., 0.312, 1.25, 5, 20 μM) for 72 hrs. The cells were then washed with phosphate buffer saline (PBS) twice, added a medium containing 3-(4,5-dimethylthiazol-2-yl)-2,5-diphenyltetrazolium bromide (MTT) at a final concentration of 0.5 mg/mL, and incubated for 4 hr at 37° C. in a humidified incubator containing 5% CO2 in air. Cells having functional succinate dehydrogenase of mitochondria would convert MTT to formazan. Then, the medium was replaced with 100 μL of DMSO for 30 min at room temperature, and the 96-well plate was read by an ELISA reader at 550 nm to get the absorbance density values. The IC50 values of death cell lines were calculated accordingly.
(§2) The Ru^TEN complexes of Example 1 were evaluated for their anti-proliferative properties in two breast cancer cell lines, namely, MCF-7 and MDA-MB-231 cells via MTT assay. […] MCF-7 is a chemotherapy-responsive breast cancer cell line of luminal subtype with high expression of estrogen receptor (ER), whereas MDA-MB-231 is a triple negative breast cancer (TNBC) or basal-like breast cancer cell ine. TNBC is defined as highly invasive cancer that lacks expression of ER, progesterone receptor (PR) and Her-2; it has one of the worst outcomes among all subtypes of breast cancers. The aggressive nature of TNBC may be related to the presence of breast cancer stem cells within the tumor; therefore, MDA-MB-231 cells are often used as a model of mammary cancer stem cells.
(§3) The cytotoxicity of Ru^TEN complexes of Example 1 was compared to that of cisplatin or oxaliplatin, which were known to induce their anticancer effects by the mode of action different from ER stress. Three CSC-selective organic compounds, salinomycin, etoposide and abamectin, were also used for comparison. Briefly, MCF-7 and MDA-MB-231 cells were respectively treated with increasing concentrations of compounds of interest for 24 or 72 hrs and then the cell viability was measured.

MDA-MB-231 = test: Anti-proliferative activity (MTT assay), MDA-MB-231; type: cell-based; conditions: MTT
Protocol: as §1, §2, §3

MDA-MB-231 mammospheres [2] = test: Cytotoxicity in MDA-MB-231 mammospheres (Table 2); type: cell-based; conditions: 72 h; read-out: IC50 (μM) MDA-MB-231 mammospheres 72 h
MCF-7 mammospheres = test: Mammosphere formation assay, MCF-7; type: cell-based
Protocol: (§4) Since the breast cancer stem cells formed a mass of colonies in the form of floating spheres without attaching to a surface of a plate, the size and number of the masses were observed by a mammosphere formation assay to determine a cancer-stem-cell-specific effect.
(§5) Single-cell suspension was cultured at a density of 1,000 to 15,000 cells/well using a MammoCult™ Human Medium kit (Stemcell Technologies Inc Vancouver, CA), and the spherical cells were counted and observed under a microscope.
(§6) The mammosphere assay is based on the concept that when cells proliferate in three-dimensional spheroid structures, only cancer cells with stem-like characteristics are able to evade anoikis.

MDA-MB-231 mammospheres [3] = test: Mammosphere formation assay, MDA-MB-231 primary; type: cell-based
Protocol: as §4, §5, §6

[4] = test system: MDA-MB-231 secondary mammospheres; test: Secondary mammosphere formation (self-renewal), MDA-MB-231; type: cell-based
Protocol: To this purpose, drug-treated primary MDA-MB-231 mammospheres were dissociated into single cell suspensions and incubated for 7 days in ultralow attachment drug-free conditions.

MDA-MB-231 mammospheres [5] = test: Invasion / dispersion of spheroids into 3D collagen; type: cell-based; conditions: cells incubated with compound 72 hr; 28 hr; FIG. 4
Source text: CSCs are associated with highly invasive phenotype and it is believed that this subset of cancer cells gives rise to metastases. In order to monitor the dissemination of MCF-7 and MDA-MB-231 breast cancer spheroids, the spheroids were embedded into three-dimensional (3D) collagen scaffold using Aim Biotech 3D cell culture chips. Collagen with spheroids was introduced into the central region of the microfluidic system where it polymerized via thermal cross-linking. Cell culture media was introduced into media channels forcing spheroids to move through collagen towards the media.
Thus, whether Ru^TEN complexes and salinomycin affected the invasive properties of MDA-MB-231 spheroids was then investigated. To this purpose, MDA-MB-231 monolayer cells were incubated with compounds of interest (e.g., Ru^TEN complexes of Examplel or salinomycin) for 72 hr, then the delamination was allowed to proceed for over 28 hr. Results are depicted in FIG. 4.

[6] = Acute toxicity, tolerated dose in Balb/c mice; type: in vivo
Protocol: In this example, Ru^TEN3 was subjected to in vivo studies with Balb/c mice. Various treatment regimens were explored to define the optimally tolerated dose of Ru^TEN3 in vivo. […] The body weight changes were recorded.

[7] = Ru biodistribution in tumor-bearing mice; type: in vivo; conditions: FIG. 6
Source text: The Ru biodistribution in tumor-bearing mice treated with Ru^TEN3 was also investigated.

[8] = test system: human hepatocellular carcinoma LM3 xenografts; test: Hepatocellular carcinoma LM3 xenograft model; type: in vivo, athymic NCr nude mice; conditions: all doses tested, FIG. 8
Protocol: (§7) Hepatocellular carcinoma LM3 cells (5×10^4 cells/20 μL) or breast cancer MDM-BA-231 cells (5×10^4 cells/20 μL) were implanted subcutaneously in the flanks of athymic NCr nude mice. A total of 40 male NCr nude mice (8 weeks or older weighing 20-24 g or more) were used for the tumor xenografts. The tested compounds (e.g., Ru^TEN 1, Ru^TEN 3, or salinomycin) were intraperitoneally administered at the dose of […] twice per week. Tumor volume was determined by image analysis. The mice in the control group received corresponding injection of 0.1% DMSO. For tumor-bearing NCr nude mice during the 4-weeks (or 28 days) experiment, the % body weight changes refer to: (the total weight on reading day/the total weight on day treatment started)×100. All mice were sacrificed at the end of the experiment (i.e., by the end of 28 days), and tissues including lung, liver, tumor, heart, brain, kidneys, spleen and colon were harvested, and checked for any sign of cancer metastasis.

[9] = test system: human MD-MBA-231 breast cancer xenografts; test: Breast cancer MDA-MB-231 xenograft model; type: in vivo, athymic NCr nude mice; conditions: doses tested, FIG. 11
Protocol: as §7
Results are depicted in FIGS. 9 to 11.

[10] = primary mammospheres grown 96 hr, incubated with compound 72 hrs, >50 μm analyzed
[11] = from drug-treated primary mammospheres, grown in drug-free conditions for 7 days

Substance: [(η6-1,3,5-triisopropybenzene)RuCl(3-chloro-N-(2-quinolinylmethylene)-aniline)]Cl [Ru^TEN3]
- IC50 (MDA-MB-231 mammospheres [1]): 2.7 µM
- IC50 (MCF-7): 4.4 ± 0.4 µM
- IC50 (MDA-MB-231; 24 h, read-out: IC50 (μM) MDA-MB-231 24 h): 4.5 ± 0.8 µM
- IC50 (MDA-MB-231; 72 h, read-out: IC50 (μM) MDA-MB-231 72 h): 1.5 ± 0.3 µM
- IC50 (MDA-MB-231 mammospheres [2]): 1.7 ± 0.3 µM
- Number of MCF-7 mammospheres (MCF-7 mammospheres; [10]): 183 ± 32
- Size (μm) of MCF-7 mammospheres (MCF-7 mammospheres; [10]): 122 ± 16 μm
- decrease in number of MCF-7 mammospheres (MCF-7 mammospheres; versus control): 30%
- Number of MDA-MB-231 mammospheres (MDA-MB-231 mammospheres [3]; [10]): 50 ± 21
- Size (μm) of MDA-MB-231 mammospheres (MDA-MB-231 mammospheres [3]; [10]): 76 ± 19 μm
- decrease in number of MDA-MB-231 mammospheres (MDA-MB-231 mammospheres [3]; versus control): 35%
- decrease in size of MDA-MB-231 mammospheres (MDA-MB-231 mammospheres [3]; versus control): 60%
- Number of MDA-MB-231 secondary mammospheres [4, 11]: 81 ± 9
- Size (μm) of MDA-MB-231 secondary mammospheres [4, 11]: 67 ± 4 μm
- propensity to form secondary mammospheres ([4]; single cells from drug-treated primary mammospheres, 7 days drug-free, FIG. 2): drastically reduced propensity to form secondary mammospheres
- dispersion of cells into collagen after 28 hr / entire incubation period (MDA-MB-231 mammospheres [5]): did not migrate from the spheroids
- body weight and condition ([6]; 5 μmol/kg intraperitoneally twice a week for 33 days): did not demonstrate any weight loss
- body weight and condition ([6]; 10 μmol/kg intraperitoneally twice a week for 33 days): did not demonstrate any weight loss
- body weight and condition ([6]; 20 μmol/kg intraperitoneally twice a week): experienced severe pain, stopped moving, thus were euthanized
- Ru accumulation in tissues [7]: highest Ru accumulation was observed in spleen and liver, followed by kidney and colon
- Ru content in the brain [7]: very low
- body weight of LM3 tumor-bearing mice [8]: neither Ru^TEN1 nor Ru^TEN3 had caused lost in body weight
- body weight / toxicity in MDA-MB-231 tumor-bearing mice [9]: low toxicity
